US4104469A, “7-(Syn-α-alkoxy-iminofuryl)acetamido-3-(2-methyl-2,3-dihydro-s-t riazolo[4,3-b]pyridazin-3-on-6-ylthiomethyl)-3-cephem-4-carboxylic acids” (Bristol-Myers Company, priority 1977, dated 1978)
Counter-ions that a name gives are not always drawn. Like-named read-outs stand apart in the source and are kept apart here.

Columns and labels:
Type in all cases: cell-based
S. marcescens [1] = assay: MIC against 18 strains of S. marcescens (Table 3); conditions: Serratia marcescens, read-out: Geometric Means of MIC's
Text: | Geometric Means of MIC's Against 18 Strains |of S. marcescens

K. pneumoniae = assay: MIC on Mueller-Hinton agar (Table 2); conditions: Klebsiella pneumoniae, 4 strains, read-out: Geometric Means of MIC's
Text: (§1) Geometric Means of MIC's Against 3 Strains
(§2) of S. aureus and 27 Strains of Gram-negative Bacteria
(§3) (mcg./ml., Mueller-Hinton Agar)

Indole (+) Proteus = assay: MIC on Mueller-Hinton agar (Table 2); conditions: 3 strains, read-out: Geometric Means of MIC's
Text: as §1, §2, §3

Shigella, Salmonella = assay: MIC on Mueller-Hinton agar (Table 2); conditions: 5 strains, read-out: Geometric Means of MIC's
Text: as §1, §2, §3

P. aeruginosa = assay: MIC on Mueller-Hinton agar (Table 2); conditions: Pseudomonas aeruginosa, 2 strains, read-out: Geometric Means of MIC's
Text: as §1, §2, §3

[2] = tested on: Indole (+) Proteus, Cephalosporin-R; assay: MIC on Mueller-Hinton agar (Table 2); conditions: 2 strains, read-out: Geometric Means of MIC's
Text: as §1, §2, §3

E. cloacae = assay: MIC on Mueller-Hinton agar (Table 2); conditions: Enterobacter cloacae, 1 strain, read-out: Geometric Means of MIC's
Text: as §1, §2, §3

E. coli [3] = assay: MIC on Mueller-Hinton agar (Table 2); conditions: Escherichia coli, 6 strains, read-out: Geometric Means of MIC's
Text: as §1, §2, §3

S. marcescens [4] = assay: MIC on Mueller-Hinton agar (Table 2); conditions: Serratia marcescens, 1 strain, read-out: Geometric Means of MIC's
Text: as §1, §2, §3

Indole (-) Proteus = assay: MIC on Mueller-Hinton agar (Table 2); conditions: 2 strains, read-out: Geometric Means of MIC's
Text: as §1, §2, §3

E. coli, Cephalosporin-R = assay: MIC on Mueller-Hinton agar (Table 2); conditions: Escherichia coli, 1 strain, read-out: Geometric Means of MIC's
Text: as §1, §2, §3

S. aureus, Penicillin-R = assay: MIC on Mueller-Hinton agar (Table 2); conditions: Staphylococcus aureus, 2 strains, read-out: Geometric Means of MIC's
Text: as §1, §2, §3

bacteria = assay: In vitro antibacterial potency; conditions: compared with corresponding compound lacking 2-methyl group (BB-S515)
N. gonorrhoeae = assay: In vitro antibacterial activity, Mueller-Hinton agar serial dilution (Table 1); conditions: Neisseria gonorrhoeae, 5 strains, serial dilution method, read-out: Geometric Mean of MIC
Text: (§4) In vitro Activity Using Mueller-Hinton Agar
(§5) By the Serial Dilution Method

H. influenzae = assay: as above; conditions: Haemophilus influenzae, 7 strains, serial dilution method, read-out: Geometric Mean of MIC
Text: as §4, §5

N. meningitidis = assay: as above; conditions: Neisseria meningitidis, 5 strains, serial dilution method, read-out: Geometric Mean of MIC
Text: as §4, §5

[5] = tested on: Shig.(3), Serr.(1) Enterab.(1), Sal.(2) B. -B. (1); assay: as above; conditions: pooled Shig.(3), serial dilution method, read-out: Geometric Mean of MIC
Text: as §4, §5

Proteus = assay: as above; conditions: read-out: Geometric Mean of MIC
Text: as §4, §5

S. pyogenes = assay: as above; conditions: Streptococcus pyogenes, read-out: Geometric Mean of MIC
Text: as §4, §5

S. aureus = assay: as above; conditions: Staphylococcus aureus, 3 strains, serial dilution method, read-out: Geometric Mean of MIC
Text: as §4, §5

E. coli [6] = assay: as above; conditions: Escherichia coli, 7 strains, serial dilution method, read-out: Geometric Mean of MIC
Text: as §4, §5

D. pneumoniae = assay: as above; conditions: Streptococcus pneumoniae, 5 strains, serial dilution method, read-out: Geometric Mean of MIC
Text: as §4, §5

S. viridans = assay: as above; conditions: Streptococcus viridans, 5 strains, serial dilution method, read-out: Geometric Mean of MIC
Text: as §4, §5

Kl. pneumoniae = assay: as above; conditions: Klebsiella pneumoniae, 4 strains, serial dilution method, read-out: Geometric Mean of MIC
Text: as §4, §5

SMILES | MIC (N. gonorrhoeae) [µg/mL] | MIC (H. influenzae) [µg/mL] | MIC (N. meningitidis) [µg/mL] | MIC [5] [µg/mL] | MIC (S. aureus) [µg/mL] | MIC (E. coli [6]) [µg/mL] | MIC (D. pneumoniae) [µg/mL] | MIC (S. viridans) [µg/mL] | MIC (Kl. pneumoniae) [µg/mL] | other results
CO/N=C(\C(=O)N[C@@H]1C(=O)N2C(C(=O)O)=C(CSc3ccc4nn(C)c(=O)n4n3)CS[C@H]12)c1ccco1 [BB-S510, 7-[(2Z)-2-methoxyimino(fur-2-yl)acetamido]-3-(2-methyl-2,3-dihydro-s-triazolo[4,3-b]pyridazin-3-on-6-ylthiomethyl)-3-cephem-4-carboxylic acid sodium salt] | 0.26 | 0.35 | 1.03 | 6.26 | 0.62 | 2.11 | 0.021 | 0.13 | 6.3 | MIC (S. marcescens [1]): 7.9 µg/mL; MIC (K. pneumoniae): 2.6 µg/mL; MIC (Indole (+) Proteus): 0.2 µg/mL; MIC (Shigella, Salmonella): 0.5 µg/mL; MIC (P. aeruginosa): > 100 µg/mL; MIC [2]: 6.3 µg/mL; MIC (E. cloacae): 3.1 µg/mL; MIC (E. coli [3]): 0.1 µg/mL; MIC (S. marcescens [4]): 6.3 µg/mL; MIC (Indole (-) Proteus): 1.1 µg/mL; MIC (E. coli, Cephalosporin-R): 3.1 µg/mL; MIC (S. aureus, Penicillin-R): 0.1 µg/mL; in vitro antibacterial potency (bacteria): considerably superior; MIC (Proteus; 6 strains, Mueller-Hinton agar, serial dilution method): 1.39 µg/mL; MIC (S. pyogenes; 5 strains, Mueller-Hinton agar, serial dilution method): 0.0125 µg/mL
CO/N=C(\C(=O)N[C@@H]1C(=O)N2C(C(=O)O)=C(CSc3ccc4n[nH]c(=O)n4n3)CS[C@H]12)c1ccco1 [BB-S515, 7-[(2Z)-2-methoxyimino(fur-2-yl)acetamido]-3-(2,3-dihydro-s-triazolo[4,3-b]pyridazin-3-on-6-ylthiomethyl)-3-cephem-4-carboxylic acid sodium salt, reference compound] | 2.07 | 2.11 | 5.45 | 5.26 | 2.48 | 2.33 | 0.1 | 0.59 | 3.1 | MIC (Proteus): 1.11 µg/mL; MIC (S. pyogenes): 0.032 µg/mL
